pEC50, pIC50: −log10 of the molar value. Like-named read-outs stand apart in the source and are kept apart here.
Assays:
[1] = tested on: L. donovani (macrophages); parameters: method as in Pbox supporting information; details: ref Pbox supporting information; cited from earlier work
[2] = tested on: infected PMM; parameters: method as in Pbox supporting information; details: ref Pbox supporting information, read-out: Toxicity on infected PMM Pbox IC50; cited from earlier work
[3] = tested on: T. brucei brucei; details: ref Pbox supporting information; read-out: T.b. brucei Pbox IC50; cited from earlier work
[4] = tested on: T. brucei rhodesiense; details: ref Pbox supporting information; read-out: T .b. rohdensie Pbox IC50; cited from earlier work
[5] = tested on: HepG2; details: ref PBox supporting information, cited from earlier work; for CC50: read-out: HepG2 PBox CC50 µM
[6] = tested on: L. donovani axenic amastigotes; parameters: method as in PBox supporting information; details: ref PBox supporting information; cited from earlier work
[7] = tested on: T. cruzi C4 β-galactosidase reporter parasite in MRC 5SV2 host cells; details: ref Pbox supporting information; read-out: T. cruzi Pbox IC50; cited from earlier work
[8] = tested on: L. infanium (macrophages); parameters: method as in Pbox supporting information; details: ref Pbox supporting information; cited from earlier work
[9] = tested on: Plasmodium falciparum 3D7 asexual blood stage; details: for screening concentrations at which red blood cell (RBC) lysis was witnessed: human
[10] = tested on: Plasmodium falciparum 3D7 asexual blood stage; assay: microbe, parasite or virus in culture
[11] = tested on: NF54-pfs16-LUC-GFP stage IV gametocytes; assay: Plasmodium falciparum late stage gametocyte (LSG) image-based assay; assay type: cell-based; details: for pIC50: IA = inactive at 20 μM
[12] = tested on: T. cruzi intracellular amastigotes; assay: Intracellular anti-Trypanosoma cruzi image-based assay (amastigotes); assay type: cell-based
[13] = tested on: 3T3 host cells; assay: T. cruzi assay, activity against 3T3 host cells; assay type: cell-based; details: reference compound set; IA = inactive at 16.4 μM
Description: page 4: […] Puromycin, 71 chloroquine, artesunate, DHA, pyronaridine and pyrimethamine were also tested in 72 IC50 format to act as internal reference compounds. 73 74 Intracellular anti-Trypanosoma cruzi Assay Protocol 75 The host cell cytoplasm, in which the parasite resides, is identified by the fluorescent 76 marker, HCS CellMask Green. Parasite and host cell nuclei are detected with the 77 fluorescent DNA intercalator, Hoechst 33342. The Opera® High Content Screening 78 System is used to take images of wells and a spot detection algorithm is used to 79 identify parasites within the cytoplasm. 80 81 Briefly, 1x 10^3 3T3 cells were added to collagen coated 384-well plates and following 82 24 hrs incubation at 37 °C, a multiplicity of infection (MOI) of 5:1 parasite: host cells 83 were added to the plate using a Multidrop liquid handler. Following additional 24 hrs 84 incubation, extracellular parasites were washed from the plates and RPMI with no […] 86 added to all wells. The final volume of media in the primary screening assay, before 87 addition of compound, was modified slightly to 55 µL. One µL of compounds, provided 88 by Compounds Australia, were diluted by the addition of 25 µL of sterile water. This […] 91 donovani). Five microliters of this dilution was added to assay plates. The final […] The final concentrations of compounds in the […] Following 48 hrs incubation in the presence 97 of compounds, wells were fixed, stained and read on the Opera® High Content 98 Screening System to assess compound activity. 99 The Z′-factor, as a measure of assay reproducibility, was determined from a plate […] The positive control used to calculate activity against […] To 103 assess the sensitivity of the T. cruzi assay, activity of the reference compounds 104 benznidazole, NFX, posaconazole and puromycin were determined. […] 108 resazurin as a measure of parasite viability. 109 T. b. brucei trypanosomes were cultured in vitro in HM1-9 medium supplemented with […] Fifty-five µL of logarithmic phase […] 112 incubated for 24 hrs at 37°C /5% CO2. Compounds were subsequently added to the […] Following […] 116 37°C / 5% CO2 followed by 22 hrs at room temperature. […] The percent

[14] = tested on: L. donovani MHOM/IN/80/DD8 intracellular amastigotes; assay: Leishmania donovani intracellular amastigote assay in THP-1 cells; assay type: cell-based; details: for pIC50: reference compound set, IA = inactive at 20 μM
[15] = tested on: T. b. brucei 427 bloodstream trypanosomes; assay: T. b. brucei resazurin viability assay; assay type: cell-based, Trypanosoma brucei brucei
[16] = tested on: P. falciparum ABS; details: cited from earlier work; for pEC50: ChEMBL Data
[17] = tested on: HEK293 cells; assay: HEK293 resazurin cell cytotoxicity assay
[18] = tested on: liver stage; details: ref Pbox supporting information; cited from earlier work
[19] = tested on: P. falciparum stage V gametocytes; details: cited from earlier work; for pIC50: stage V gametocytes, ref PBox supporting information, read-out: PF stage V GAMS PBox IC50
[20] = read-out: Antiplasmodial IC50 (ABS), PBox compounds, P. falciparum 3D7
[21] = 3D7, read-out: Antiplasmodial IC50 (ABS), PBox compounds, P. falciparum 3D7
[22] = 3D7, read-out: activity against P. falciparum (novel antiplasmodial actives of the tuberculosis set)
[23] = reference compound set, IA = inactive at 16.4 μM, read-out: IC50 T. cruzi intracellular amastigotes
[24] = read-out: IC50 L. donovani n = 1, first test
[25] = read-out: IC50 L. donovani n = 2, second test
[26] = reference compound set, IA = inactive at 20 μM, read-out: IC50 T. brucei brucei trypomastigotes
[27] = reference compound set, 11-point dose response, read-out: IC50 P. falciparum NF54 LSG
[28] = Homo sapiens, HEK293, read-out: HEK % Inhibition 20uM/IC50 Discovery Biology (IA)
[29] = P. falciparum 3D7, ref PBox supporting information, read-out: Pf 3D7 Pbox IC50
[30] = read-out: IC50 P. falciparum 3D7 ABS, reference compound set, 11-point dose response, IA = inactive at 20 μM
[31] = Trypanosoma cruzi, reference compound set, IA = inactive at 16.4 μM, read-out: IC50 T. cruzi intracellular amastigotes
[32] = Leishmania donovani, THP-1, read-out: IC50 L. donovani n = 1, first test
[33] = Leishmania donovani, THP-1, read-out: IC50 L. donovani n = 2, second test
[34] = Plasmodium falciparum, NF54, read-out: IC50 P. falciparum NF54 LSG, reference compound set, 11-point dose response

O=C(Nc1c(O)cccc1-c1nc2c(C(=O)O)cccc2o1)c1cc(-c2ccccc2)on1 [MMV676008]
pIC50 [1]: < 4.52 | pIC50 [2]: < 4.52 | pIC50 [3]: < 4.49 | pIC50 [4]: < 4.49 | HepG2 PBox CC20 [5]: 5700 nM | pIC50 [6]: 6.24 | pIC50 [7]: < 4.49 | pIC50 [8]: < 4.49

Cc1cnc(N2CCN[C@@H](Cc3ccccc3)C2)nc1Oc1ccc(-n2ccnc2)cc1 [MMV687765]
CC50 ([5]; HepG2 cytotoxicity): 14.1 µM | pIC50 [9, 20]: 5.70 | pIC50 [10, 21]: 5.70 | pIC50 [10, 22]: > 5.70 | IC50 ([11]; Plasmodium falciparum, NF54, read-out: Pf Stage IV GAMS Discovery Biology IC50 µM, stage IV gametocytes, Discovery Biology): 4.28 µM

NCCC[C@](N)(C(=O)O)C(F)F [α-Difluoromethylornithine, reference compound]
pIC50 [12, 23]: < 4.79 | pIC50 [13]: < 4.79 | pIC50 ([9]; read-out: IC50 P. falciparum 3D7 ABS): < 4.70 | pIC50 [14, 24]: < 4.70 | pIC50 [14, 25]: < 4.70 | pIC50 [15, 26]: < 4.70 | pIC50 [11, 27]: < 4.70

C[C@H](C(N)=O)N1CCCC[C@@H]1c1ccc(OCc2cccc(F)c2)cc1 [MMV676270]
pEC50 ([16]; P. falciparum, read-out: TCMDC (ref 93) EX50): 6.00 | pIC50 ([16]; read-out: literature ABS activity): 6.00 | CC50 [5]: > 10 µM | pIC50 [17, 28]: < 4.70 | activity in the Discovery Biology ABS assay [9]: no activity | activity in the Discovery Biology stage IV gametocyte (LSG) assay [11]: no activity | pIC50 [18]: 5.75

Cc1ccc(-c2cc(C(=O)Nc3cccnc3)c3cc(Br)ccc3n2)cc1 [MMV016838]
pIC50 ([16]; Pf 3D7, ref Pathogen Box supporting information, read-out: Pf 3D7 Pbox IC50): 7.00 | activity against gametocytes (stage V), PBox supporting information ([19]; ref Pbox supporting information): known to be active | activity in the Discovery Biology ABS assay [9]: not to be active | activity in the Discovery Biology stage IV gametocyte (LSG) assay [11]: not to be active | activity against liver stage, PBox supporting information [18]: known to be active

O=C(C1CCN(c2nnnn2-c2ccccc2)CC1)N1CCc2ccccc2C1 [MMV009135]
pEC50 ([16]; NITD, read-out: NITD (ref 94) EC50): 5.89 | pEC50 ([16]; TCMDC, read-out: TCMDC (ref 93) EX50): 6.15 | activity in the Discovery Biology ABS assay [9]: did not show any activity | activity in the Discovery Biology stage IV gametocyte (LSG) assay [11]: did not show any activity

N#CCN(CCCCN1CCN(c2ccc(F)cc2)CC1)C(=O)OCc1ccccc1 [MMV675997]
pIC50 [1]: 4.65 | pIC50 [2]: < 4.52 | pIC50 [3]: 4.60 | pIC50 [4]: 4.79 | pIC50 [6]: < 4.00 | pIC50 [7]: 5.34 | pIC50 [8]: 4.60

c1ccc(C[C@@H]2CN(c3nccc(Oc4ccc(-n5ccnc5)cc4)n3)CCN2)cc1 [MMV687749]
CC50 ([5]; HepG2 cytotoxicity): 29 µM | pIC50 [9, 20]: 5.68 | pIC50 [10, 21]: 5.70 | pIC50 [10, 22]: > 5.70

CCNC(=O)C(C)Nc1nc(-c2cccnc2)nc2sc(C)c(C)c12 (stereo not shown) [MMV1037162]
pIC50 [16, 29]: < 5.70 | pIC50 [19]: 6.21 | pIC50 [17, 28]: < 4.70 | screening concentrations at which red blood cell (RBC) lysis was witnessed [9]: ≥ 2 µM

C[C@H]1COc2c(N3CCN(C)CC3)c(F)cc3c(=O)c(C(=O)O)cn1c23 [Levofloxacin (–)-ofloxacin, reference compound]
pIC50 [12, 23]: < 4.79 | pIC50 [13]: < 4.79 | pIC50 [9, 30]: < 4.70 | pIC50 [14, 24]: < 4.70 | pIC50 [14, 25]: < 4.70 | pIC50 [15, 26]: < 4.70 | pIC50 [11, 27]: < 4.70

N=C(N)c1ccc(OCCCCCOc2ccc(C(=N)N)cc2)cc1 [Pentamidine, reference compound]
pIC50 [12, 31]: < 4.79 | pIC50 [13]: < 4.79 | percent inhibition at the top screening dose, HEK293 ([17]; reference compound set): 75% | pIC50 ([10]; 3D7, read-out: IC50 P. falciparum 3D7 ABS): 8.00 | pIC50 [14, 32]: < 4.70 | pIC50 [14, 33]: < 4.70 | activity against L. donovani at 20 μM ([14]; PBox sample, 20 μM): did not show activity | pIC50 ([15]; Trypanosoma brucei, in-house control stock, not the PBox sample, read-out: IC50 of standard in-house assay control, T. brucei brucei): > 9.00 | pIC50 ([15]; Trypanosoma brucei, reference compound set, IA = inactive at 20 μM, read-out: IC50 T. brucei brucei trypomastigotes): > 7.70 | pIC50 [11, 34]: 5.84

CNC(=O)CNc1nc(-c2ccccn2)nc2scc(-c3ccccc3)c12 [MMV1029203]
pIC50 [16, 29]: < 5.70 | pIC50 [19]: 6.08 | pIC50 [17, 28]: < 4.70 | screening concentrations at which red blood cell (RBC) lysis was witnessed [9]: ≥ 2 µM

CCN(CC)CCCCCCNc1cc(OC)cc2c(C)ccnc12 [Sitamaquine, reference compound]
pIC50 [12, 31]: < 4.79 | pIC50 [13]: < 4.79 | percent inhibition at the top screening dose, HEK293 ([17]; reference compound set): 100% | pIC50 ([10]; 3D7, read-out: IC50 P. falciparum 3D7 ABS, reference compound set, 11-point dose response, IA = inactive at 20 μM): 5.69 | pIC50 [14, 32]: < 4.70 | pIC50 [14, 33]: < 4.70 | inhibition at 20 µM ([15]; Trypanosoma brucei, reference compound set, 20 μM, read-out: percent inhibition at the top screening dose, T. brucei brucei): 91% | pIC50 [11, 34]: 6.01

CC(=O)OC[C@H]1O[C@@H]([S-])[C@H](OC(C)=O)[C@@H](OC(C)=O)[C@@H]1OC(C)=O.CCP(CC)CC.[Au+] [Auranofin, reference compound]
pIC50 [12, 23]: 5.52 | pIC50 [13]: 5.31 | pIC50 ([17]; read-out: IC50 mammalian cell cytotoxicity HEK293, reference compound set): 5.66 | pIC50 [9, 30]: 6.15 | pIC50 [14, 24]: 6.20 | pIC50 [14, 25]: 5.70 | pIC50 [15, 26]: 6.62 | pIC50 [11, 27]: 6.26

CCc1ccc(C(NCc2nc(N)nc(N(C)C)n2)C(C)C)cc1 (stereo not shown) [MMV1019989]
pIC50 [16, 29]: < 5.70 | pIC50 [19]: 7.12 | pIC50 [17, 28]: < 4.70 | screening concentrations at which red blood cell (RBC) lysis was witnessed [9]: ≥ 2 µM

COc1ccc(OC)c(NCc2ccc3nc(N)nc(N)c3c2Cl)c1 [MMV675968]
pIC50 ([12]; Trypanosoma cruzi, intracellular amastigotes, read-out: T cruzi Discovery Biology IC50): 5.88 | HepG2 PBox CC20 [5]: 3400 nM | pIC50 ([17]; Homo sapiens, HEK293, read-out: HEK % Discovery Biology IC50): 6.66 | SI HEK (P. falciparum 3D7) ([9]; HEK293): 7.4 | SI HepG2 (P. falciparum 3D7) ([9]; HEPG2 (PBox data)): 113 | pIC50 [10, 21]: 7.52 | pIC50 ([10]; 3D7, read-out: Pf 3D7 Discovery Biology IC50, P. falciparum 3D7 asexual blood stage): 7.48 | pIC50 ([15]; Trypanosoma brucei, read-out: T b.brucei Discovery Biology IC50): 5.68
